Data published in patent US9193722B2, “Tri-cyclic pyrazolopyridine kinase inhibitors” (Vertex Pharmaceuticals Incorporated, priority 2008, dated 2015).
pKi: −log10 of the molar value.

What was measured:
Format in all cases: biochemical
[1] = target: PKC delta kinase (Homo sapiens, UniProt Q05655); experiment: PKC delta kinase inhibition, coupled-enzyme (NADH absorbance) assay, Ki; details: 150 μM ATP, 46 nM PKC delta kinase, 30° C.; read-out: Ki PKC delta
How it was run: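 Enzyme and compound pre-equilibrated 10 min at 30° C before adding ATP to 150 μM final. Buffer: HEPES pH 7.5 (100 mM), 10 mM MgCl2, 25 mM NaCl, 0.1 mM EDTA, 0.01% Brij.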

[2] = target: PKC theta kinase (Homo sapiens, UniProt Q04759); experiment: PKC theta kinase inhibition, coupled-enzyme (NADH absorbance) assay, Ki; details: 240 μM ATP, 18 nM PKC theta kinase, 30° C.
How it was run: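 Enzyme and compound equilibrated 10 min at 30 °C before reaction in HEPES pH 7.5 buffer with MgCl2, NaCl, EDTA and Brij. Activity tracked as NADH loss at 340 nm through a coupled system. Initial-rate data fitted by non-linear regression to give Ki.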

[3] = target: PKC alpha kinase (Homo sapiens, UniProt P17252); experiment: PKC alpha kinase inhibition, coupled-enzyme (NADH absorbance) assay, Ki; details: 130 μM ATP, 4.5 nM PKC alpha kinase, 30° C.
How it was run: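 Ki derived by non-linear regression of initial rates from a coupled assay tracking NADH absorbance at 340 nm over 15 min at 30 °C. ATP was 130 μM final after a 10 min compound–enzyme preincubation in HEPES pH 7.5 buffer with MgCl2, CaCl2, NaCl, EDTA and Brij.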

PKC delta kinase, sequence (Q05655 whole entry): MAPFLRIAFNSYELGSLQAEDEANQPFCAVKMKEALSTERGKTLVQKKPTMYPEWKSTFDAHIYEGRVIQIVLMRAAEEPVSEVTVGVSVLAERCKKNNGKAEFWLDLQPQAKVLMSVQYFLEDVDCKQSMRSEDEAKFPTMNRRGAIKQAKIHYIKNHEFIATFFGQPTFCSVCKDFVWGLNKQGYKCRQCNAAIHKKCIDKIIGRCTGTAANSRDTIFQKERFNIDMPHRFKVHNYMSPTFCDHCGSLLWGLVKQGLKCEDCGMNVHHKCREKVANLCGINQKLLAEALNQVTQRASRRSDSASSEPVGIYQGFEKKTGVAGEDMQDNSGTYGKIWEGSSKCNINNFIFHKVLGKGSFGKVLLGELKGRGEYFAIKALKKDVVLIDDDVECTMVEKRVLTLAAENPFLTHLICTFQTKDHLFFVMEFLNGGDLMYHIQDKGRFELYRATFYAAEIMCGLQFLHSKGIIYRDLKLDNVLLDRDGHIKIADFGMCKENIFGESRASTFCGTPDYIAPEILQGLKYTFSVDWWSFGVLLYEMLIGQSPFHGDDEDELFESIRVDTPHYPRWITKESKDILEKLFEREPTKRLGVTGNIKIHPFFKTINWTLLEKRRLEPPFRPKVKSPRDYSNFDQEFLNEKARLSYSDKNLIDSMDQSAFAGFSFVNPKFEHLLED
PKC theta kinase, sequence (Q04759 whole entry): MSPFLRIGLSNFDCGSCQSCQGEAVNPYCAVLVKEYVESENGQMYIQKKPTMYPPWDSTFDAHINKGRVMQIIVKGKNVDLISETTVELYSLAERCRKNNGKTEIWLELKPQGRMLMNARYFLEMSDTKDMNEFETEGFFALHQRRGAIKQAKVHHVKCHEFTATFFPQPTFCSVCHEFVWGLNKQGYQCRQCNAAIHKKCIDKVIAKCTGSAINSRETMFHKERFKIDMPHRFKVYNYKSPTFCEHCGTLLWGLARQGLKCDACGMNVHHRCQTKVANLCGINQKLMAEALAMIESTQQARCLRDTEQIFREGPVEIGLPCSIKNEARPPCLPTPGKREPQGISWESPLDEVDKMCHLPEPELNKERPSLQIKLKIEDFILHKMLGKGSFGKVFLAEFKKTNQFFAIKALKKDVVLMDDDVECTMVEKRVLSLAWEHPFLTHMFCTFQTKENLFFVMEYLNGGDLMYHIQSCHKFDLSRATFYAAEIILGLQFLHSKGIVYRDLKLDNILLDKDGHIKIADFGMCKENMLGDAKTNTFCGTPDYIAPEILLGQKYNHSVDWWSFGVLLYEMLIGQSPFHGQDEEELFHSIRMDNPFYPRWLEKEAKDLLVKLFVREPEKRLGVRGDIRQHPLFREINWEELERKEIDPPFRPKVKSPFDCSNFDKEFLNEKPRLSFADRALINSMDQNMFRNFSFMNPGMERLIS

Row | Compound | pKi [1] | pKi [2] | pKi [3]
1 | CC[C@@H]1CN(c2cccc(-c3n[nH]c4ncccc34)n2)C[C@H](CC(C)C)N1 [Compound 13] | > 6.30 | > 7.30 | > 5.55
2 | CCC(N)(CC)C1CCCN(c2ccc(F)c(-c3n[nH]c4ncccc34)n2)C1 (stereo not drawn) [Compound 377] | > 5.55 | > 6.30 | < 5.90
3 | CCC[C@H]1CN(c2ccc(F)c(-c3n[nH]c4ncccc34)n2)C[C@@H]1N [Compound 339] | < 5.90 | > 6.30 | < 5.90
4 | Cc1cc(-c2n[nH]c3ncccc23)nc(N2CCN[C@@H](CC(C)C)C2)c1 [Compound 56] | > 5.55 | > 6.30 | < 5.90
5 | CC(C)CC1(CN)CCN(c2ccc(F)c(-c3n[nH]c4ncccc34)n2)CC1 [Compound 467] | < 5.90 | > 6.30 | < 5.90
6 | CC(C)CC1CN(c2ccc(C(F)(F)F)c(-c3n[nH]c4ncccc34)n2)CCC1CCN (stereo not drawn) [Compound 469] | < 5.90 | > 6.30 | < 5.90
7 | CC(C)CC1(C)CN(c2ccc(C(F)(F)F)c(-c3n[nH]c4ncccc34)n2)CCN1 (stereo not drawn) [Compound 82] | > 6.30 | > 7.30 | > 6.30
8 | CC(C)(C)C(N)C1CCCN(c2ccc(F)c(-c3n[nH]c4ncccc34)n2)C1 (stereo not drawn) [Compound 331] | > 5.55 | > 6.30 | < 5.90
9 | CC(C)C[C@H]1CN(c2cccc(-c3n[nH]c4ncccc34)n2)CC[C@@H]1N [Compound 130] | > 6.30 | > 7.30 | > 5.55
10 | CC(F)(F)C(C)(O)C1CN(c2ccc(F)c(-c3n[nH]c4ncccc34)n2)CCN1 (stereo not drawn) [Compound 286] | > 6.30 | > 7.30 | < 5.90
11 | CC(C)[C@@](C)(O)[C@@H]1CN(c2nc(-c3n[nH]c4ncccc34)c(F)cc2F)CCN1 [Compound 445] | > 7.30 | > 9.00 | > 6.30
12 | OC1(C2CN(c3cccc(-c4n[nH]c5ncccc45)n3)CCN2)COC1 (stereo not drawn) [Compound 232] | < 5.90 | < 6.15 | < 5.90
13 | OCC1CCCN(c2ccc(C(F)(F)F)c(-c3n[nH]c4ncccc34)n2)C1 (stereo not drawn) [Compound 258] | < 5.90 | < 6.15 | < 5.90
14 | Fc1ccc(N2CCNC3(CCC3)C2)nc1-c1n[nH]c2ncccc12 [Compound 188] | > 6.30 | > 7.30 | > 5.55
15 | CC(C)C[C@H]1CN(c2ccc(C(F)(F)F)c(-c3n[nH]c4ncccc34)n2)C[C@@H](C)N1 [Compound 203] | > 6.30 | > 7.30 | > 6.30
16 | CCCC1CN(c2ccc(Cl)c(-c3n[nH]c4ncccc34)n2)CCN1 (stereo not drawn) [Compound 123] | > 5.55 | > 7.30 | < 5.90
17 | NC1CCN(c2cccc(-c3n[nH]c4ncccc34)n2)CC1 [Compound 61] | > 5.55 | > 6.30 | < 5.90
18 | CCC[C@H]1CN(c2ccc(C(F)(F)F)c(-c3n[nH]c4ncccc34)n2)CC(F)(F)CN1 [Compound 223] | < 5.90 | < 6.15 | < 5.90
19 | CC(C)C(N)C1CN(c2ccc(C(F)(F)F)c(-c3n[nH]c4ncccc34)n2)CCO1 (stereo not drawn) [Compound 348] | < 5.90 | > 6.30 | < 5.90
20 | CC(C)CC1(N)CCCN(c2ccc(F)c(-c3n[nH]c4ncccc34)n2)C1 (stereo not drawn) [Compound 284] | < 5.90 | > 6.30 | < 5.90
21 | CC(C)(F)C(N)C1CCCN(c2ccc(F)c(-c3n[nH]c4ncccc34)n2)C1 (stereo not drawn) [Compound 345] | > 6.30 | > 7.30 | < 5.90
22 | Cc1ccc(N2CCNCC2)nc1-c1n[nH]c2ncccc12 [Compound 3] | > 5.55 | > 6.30 | < 5.55
23 | NC1CCN(c2ccc(C(F)(F)F)c(-c3n[nH]c4ncccc34)n2)CC1 [Compound 126] | < 5.90 | > 6.30 | < 5.90
24 | COC(=O)C1(CC(C)C)CN(c2ccc(C(F)(F)F)c(-c3n[nH]c4ncccc34)n2)CCC1N (stereo not drawn) [Compound 402] | > 6.30 | > 6.30 | < 5.90
25 | CCC[C@@H]1CN(c2cccc(-c3n[nH]c4ncccc34)n2)C[C@H](CC(C)C)N1 [Compound 15] | > 6.30 | > 7.30 | > 5.55
26 | CCC(CC)C(N)C1CCCN(c2ccc(F)c(-c3n[nH]c4ncccc34)n2)C1 (stereo not drawn) [Compound 391] | > 5.55 | > 7.30 | < 5.90

Other lines, results leading:

Row | pKi [1] | pKi [2] | pKi [3] | Compound
27 | > 6.30 | < 6.15 | < 5.90 | OC1(c2cccc(-c3n[nH]c4ncccc34)n2)CCNCC1 [Compound 60, 4-(6-(1H-pyrazolo[3,4-b]pyridin-3-yl)pyridin-2-yl)piperidin-4-ol]
28 | > 6.30 | > 6.30 | < 5.90 | C=C(F)c1cc(-c2n[nH]c3ncccc23)nc(N2CCNCC2)c1 [Compound 92]
29 | > 6.30 | > 9.00 | > 6.30 | CC1(C)CC1(O)C1CN(c2ccc(F)c(-c3n[nH]c4ncccc34)n2)CCN1 (stereo not drawn) [Compound 381]
30 | > 5.55 | > 6.30 | > 5.55 | CC(C)CC1(CO)CN(c2ccc(C(F)(F)F)c(-c3n[nH]c4ncccc34)n2)CCC1N (stereo not drawn) [Compound 411]
31 | < 5.70 | < 6.15 | < 5.90 | Cc1cc(C)c(CC2CN(c3cccc(-c4n[nH]c5ncccc45)n3)CCN2)c(C)c1 (stereo not drawn) [Compound 69]
32 | > 6.30 | > 7.30 | > 6.30 | Cc1ccccc1C1CN(c2cccc(-c3n[nH]c4ncccc34)n2)CCN1 (stereo not drawn) [Compound 32]
33 | < 5.90 | < 6.15 | < 5.90 | OCCC1CCCCN1c1ccc(C(F)(F)F)c(-c2n[nH]c3ncccc23)n1 (stereo not drawn) [Compound 257]
34 | > 7.30 | > 7.30 | > 7.30 | CC(C)CC1(C)CN(c2ccc(Cl)c(-c3n[nH]c4ncccc34)n2)CCN1 (stereo not drawn) [Compound 86]
35 | > 5.55 | > 6.30 | < 5.90 | CC[C@H]1CN(c2ccc(C(F)(F)F)c(-c3n[nH]c4ncccc34)n2)CCN1 [Compound 75]
36 | < 5.90 | > 6.30 | < 5.90 | CC(C)C[C@H]1CN(c2ccc(C(F)(F)F)c(-c3n[nH]c4ncccc34)n2)CCCN1 [Compound 224]
37 | < 5.90 | < 6.15 | < 5.90 | FC(F)(F)c1ccc(N2CCC(N3CCCCC3)CC2)nc1-c1n[nH]c2ncccc12 [Compound 320]
38 | < 5.90 | < 6.15 | < 5.90 | CC(C)C(C)(O)C1CN(c2ccc(F)c(-c3n[nH]c4ncccc34)n2)CCN1C(=O)OC(C)(C)C (stereo not drawn) [Compound 424]
39 | < 5.70 | < 6.15 | < 5.90 | OC1CCN(c2cccc(-c3n[nH]c4ncccc34)n2)CC1 [Compound 22]
40 | < 5.90 | > 6.30 | < 5.90 | Fc1ccc(C2CN(c3ccc(C(F)(F)F)c(-c4n[nH]c5ncccc45)n3)CCN2)cc1 (stereo not drawn) [Compound 171]
41 | < 5.70 | < 6.15 | < 5.90 | c1cnc2[nH]nc(-c3nccc(N4CCNCC4)n3)c2c1 [Compound 81, 3-(4-(piperazin-1-yl)pyrimidin-2-yl)-1H-pyrazolo[3,4-b]pyridine]
42 | > 6.30 | > 7.30 | < 5.90 | NC1CCN(c2cc(CO)cc(-c3n[nH]c4ncccc34)n2)CC1 [Compound 441]
